The values that follow are results of earlier work, collected in patent US7976869B2, “Fenofibrate tablets” (Laboratoires Fournier S.A., priority 2001, dated 2011).

Structures are written as SMILES. Where two headings read alike, the source gives them in different places.

For the data set the following is noted: conventional gelatin capsule form.

The bioavailability is dose-corrected exposure relative to a reference, in per cent. Take `CC(C)OC(=O)C(C)(C)Oc1ccc(C(=O)c2ccc(Cl)cc2)cc1` [Fenofibrate]: the bioavailability was 89% (after a meal) and 26% (on an empty stomach).
